Measured values from US4863748A, “Dietary products and uses comprising methylsulfonylmethane” (priority 1986, dated 1989).

Columns and labels:
arthritic patients = test: Chemical profile of arthritic patients; format: in vivo, human; settings: drop from 600+
Source text: 8. Improving the chemical profile of arthritic patients, e.g., providing relief from pain and stiffness, reduced swelling and inflammation, coupled with a return of blood chemistry towards normalcy, for example, a RH titer drop from 600+to 300 or lower.

[1] = system: rheumatoid arthritis and other intense pain-producing disease; test: Intravenous administration in acute intense pain-producing disease; format: in vivo, human
Source text: In U.S. Pat. No. 4,296,130, I teach that methylsulfonylmethane is so inert and non-toxic that aqueous solutions thereof can be used as a blood diluent. In healthy humans or other animals having adequately high methylsulfonylmethane blood levels, methylsulfonylmethane is in fact "inert" in the sense the term is used in that patent. However, in acutely ill patiets, dramatic beneficial benefits are often obtained by the intravenous administration of large doses of methylsulfonylmethane. For example, rheumatoid arthritic patients suffering from a flair-up of the disease which produces intense pain or crippling swelling of the joints or both achieve prompt relief, even those patients who obtain only minimal or delayed benefits from oral ingestion of methylsulfonylmethane.
Apparently, when a patient is in an acute stage of intense pain-producing disease, such as rheumatoid arthritis, osteoporosis, degenerative disc syndrome, an autoimmune disease or metathesized carcinoma, which produces intense pain, the relief from pain from oral ingestion of methylsulfonylmethane is sometimes too subtle or takes too long for the patient to obtain reasonably prompt subjective benefits therefrom.
Therefore, in one aspect this invention relates to a method for rapidly ameliorating at least the pain associated with an intense pain-producing disease by the intravenous administration of methylsulfonylmethane in an amount effective to ameliorate the pain.
The amount of methylsulfonylmethane intravenously administered can vary substantially because of its lack of toxicity and adverse side effects. Individual doses can vary from about 0.01 to 2 gm/kg, preferably from about 0.1 to 1 gm/kg, on a body weight basis, the usual dosage range is about 0.25 to 0.75 gm/kg, preferably about 0.5 gm/kg.
When large amounts are administered, e.g., in the order of 1 g/kg of body weight or more, i.e., infusion of 5% to 10% solution of methylsulfonylmethane in water, physiological saline or 5% dextrose is preferred. The rate of administration is preferably no greater than about 1 gm/kg/hr, although infusion rates as high as 2 gm/kg/hr are tolerated by patients, except for light-headedness of the type experienced by some blood donors is experienced by some patients at this rate.
For patients suffering from a serious chronic disease, e.g., an acute stage of rheumatoid arthritis or other acute inflammatory conditions or a patient in extreme pain, administer 1 gm/kg of methylsulfonylmethane i.v. as a 14% by wt. solution in sterile 5% dextrose solution, at the rate of 1 gm/kg/hr. Within 2-4 hours, significant subjective relief from the symptoms of the disease or condition is experienced by the patient, with the relief lasting for from 7 to 21 days.

coat = test: Coat quality of dogs (Example 7); format: in vivo, dog (female labradors); settings: 5% in drinking water, 45 days; three individuals
Source text: The coats of animals A and B of Example 6 were examined by three individuals.

stress death = test: Stress death in fish (Example 10); format: in vivo, Goldfish; settings: 2% by weight in feed, 25 fish; control 11 deaths
Procedure: 62 Goldfish, about 2 inches long, were divided into two 31 population lots and placed in acclimated aquariums (2) maintained at 50° F. On receipt of the fish, two small one gallon aquariums were filled with tap water and stablized for 5 days by aeration with an aerator/filter combination connected to a common aquarium air pump. Air delivery during the test period was standardized at 100 ml of air per minute. From a 1 oz. package of "Wardleys" goldfish food two 10 gram samples were removed. One sample was untreated and the other was moistened with about one ml of pure ethanol containing 0.2 gram methylsulfonylmethane in solution. The feed absorbed all the methylsulfonylmethane (the lot after air drying for 48 hours weighed 10.2 grams). Both feeds were pulverized to a coarse powder suitable for feeding small fish.
The 31 fish in each of the two holding aquariums were identified as batch A and batch B. During the acclimatization and test periods the batch A fish were fed 0.5 gram of untreated "Wardleys" food once daily. Batch B fish were fed 0.5 gram of the feed containing the methylsulfonylmethane during the acclimatization and test periods. Neither batch A nor B consumed all of the feed as some eventually collected in the fiberglass filter. However, most of each feeding was consumed in the first 5-10 minutes after delivery. […]

[2] = system: subjects in apparent good health; test: Maintenance of good health (Example 12); format: in vivo, human
Procedure: 14 subjects of both sexes, all in apparent good health, ages 33-59, were given oral methylsulfonylmethane in amounts ranging from 250 to 500 mg daily which maintained their blood levels above 1 ppm. These individuals were continued on methylsulfonylmethane, taken as a solution in orange juice for periods of from about seven months to over one year.

platelet count = test: Low platelet count in lupus erythematosus (Example 22); format: in vivo, human; settings: 1.5 gm/day in 3 doses, 2-year period
Source text: Methylsulfonylmethane administered orally raised the platelet count of an adult with lupus erythematosus from 84,000 (after prednisone therapy) to 200,000 over a 2-year period (1.5 gm/day in 3 doses).

sun and wind burn = test: Sun and wind burn (Example 23); format: in vivo, human; settings: 0.5-2 gm/day, about 4 hours exposure; companions severely burned
[3] = system: spontaneous mouse lymphomas; test: Spontaneous mouse lymphomas, survival (Example 37); format: in vivo, laboratory mice; settings: 3% by wt. in water; all 12 controls dead by month 4
Procedure: Laboratory mice genetically predisposed to lymphoma development were selected for this test. Humoral immunity participation was measured as was the effect of methylsulfonylmethane on an animal's life span. One set of 12 mice were maintained as controls. The treated (T) group received identical treatment except for their water given ad lib, which contained 3% by wt. of methylsulfonylmethane in solution.
By month 4 of this test, all controls were dead, due to lymphoma development. […] These normal balb/c strain mice of group T were tested for t-lymphocyte dependent (t-d) and t-lymphocyte independent (t-i) immune responses. […] Based on these preliminary results, at high enough daily rates of ingestion, methylsulfonylmethane stimulates humoral immunity thereby providing protection to otherwise lethal spontaneous mouse lymphomas.

anticholinesterases = settings: in vivo; cited from earlier work
[4] = 1 gm/kg i.v., 14% solution in 5% dextrose, 1 gm/kg/hr (Example 34)
[5] = 250 to 500 mg daily, seven months to over one year

In the case of CS(C)(=O)=O [methylsulfonylmethane], the RH titer (arthritic patients) is reported as no more than 300, the duration of relief [1, 4] is reported as 7 to 21 days and the “time to significant subjective relief from symptoms” value [1, 4] is reported as 2 to 4 h. For the same molecule, the “time to relief from pain” value ([1]; i.v.) was “within hours and often within minutes”, the “relief in flare-up of rheumatoid arthritis” value ([1]; i.v., large doses) was “prompt relief” and the “duration of remission maintained with oral ingestion after one i.v. administration” value ([1]; one i.v., then oral) was “weeks or months”. The “coat quality (thickness and shiny appearance)” value (coat) was “superior”, the “deaths in aquarium by day ten” value (stress death) was “one” and the blood level ([2]; 250 to 500 mg daily oral) was “above 1 ppm”. For the same molecule, the illness during testing [2, 5] was “None of the 14 became ill”, the reported well-being [2, 5] was “feeling better and stronger with increased endurance” and the platelet count (platelet count) was 200,000. The “suffering from sun and wind exposure” value (sun and wind burn) was “suffered only mildly”, the “deaths by month 5” value [3] was “No T group mice had died” and the “lethal effects of anticholinesterases such as paraoxon, tetraethyl pyrophosphate and octamethyl pyrophosphoramide” value (anticholinesterases) was “antagonizes”.
